Assay results published in ChEMBL document CHEMBL3045497, “An analogue of piperonyl butoxide facilitates the characterisation of metabolic resistance” (Pest Manag Sci, 2009).
Values after ≈ are worked out from the molar mass of the structure shown. Active and inactive are the calls of the source. The rule behind the calls is not given here.

Assays:
[1] = Inhibition of B-type Bemisia tabaci (sweet potato whitefly) esterase using 31.25 uM of 1-naphthyl butyrate as substrate after 120 min
Bemisia tabaci [2] = experiment: Non-competitive inhibition of B-type Bemisia tabaci (sweet potato whitefly) esterase using 1-naphthyl butyrate as substrate after 10 to 120 min
[3] = Inhibition of B-type Bemisia tabaci (sweet potato whitefly) esterase using 500 uM of 1-naphthyl butyrate as substrate after 120 min
[4] = Inhibition of B-type Bemisia tabaci (sweet potato whitefly) esterase using 500 uM of 1-naphthyl butyrate as substrate after 10 min
Bemisia tabaci [5] = experiment: Inhibition of B-type Bemisia tabaci (sweet potato whitefly) oxidase-mediated O-deethylation using 18 uM of 7-ethoxycoumarin as substrate assessed as residual activity after 10 min relative to control
Bemisia tabaci [6] = experiment: Inhibition of B-type Bemisia tabaci (sweet potato whitefly) oxidase-mediated O-deethylation using 285 uM of 7-ethoxycoumarin as substrate assessed as residual activity after 120 min relative to control
Bemisia tabaci [7] = experiment: Inhibition of B-type Bemisia tabaci (sweet potato whitefly) oxidase-mediated O-deethylation using 285 uM of 7-ethoxycoumarin as substrate assessed as residual activity after 10 min relative to control
Bemisia tabaci [8] = experiment: Reversible inhibition of B-type Bemisia tabaci (sweet potato whitefly) esterase using 1-naphthyl butyrate as substrate after 10 to 120 min
Bemisia tabaci [9] = experiment: Resistant factor, ratio of LC50 for […] (sweet potato whitefly) in presence of EN 16/5-1; format: functional
Bemisia tabaci [10] = experiment: Resistant factor, ratio of LC50 for […] (sweet potato whitefly) in presence of PBO; format: functional
Bemisia tabaci [11] = experiment: Resistant factor, ratio of LC50 for drug-susceptible Bemisia tabaci SUD-S (sweet potato whitefly) to LC50 for drug-resistant Bemisia tabaci GUAMIX (sweet potato whitefly); format: functional
Bemisia tabaci [12] = experiment: Insecticidal activity against drug-resistant Bemisia tabaci GUAMIX (sweet potato whitefly) in cotton plant leaf assessed as mortality after 48 hr in presence of EN 16/5-1 pretreated 5 hr before compound challenge; format: functional
Bemisia tabaci [13] = experiment: Insecticidal activity against drug-resistant Bemisia tabaci GUAMIX (sweet potato whitefly) in cotton plant leaf assessed as mortality after 48 hr; format: functional
Bemisia tabaci [14] = experiment: Insecticidal activity against drug-susceptible Bemisia tabaci SUD-S (sweet potato whitefly) in cotton plant leaf assessed as mortality after 48 hr; format: functional
Bemisia tabaci [15] = experiment: Insecticidal activity against drug-susceptible Bemisia tabaci SUD-S (sweet potato whitefly) in cotton plant leaf assessed as mortality after 48 hr in presence of PBO pretreated 5 hr before compound challenge; format: functional
Bemisia tabaci [16] = experiment: Insecticidal activity against drug-resistant Bemisia tabaci GUAMIX (sweet potato whitefly) in cotton plant leaf assessed as mortality after 48 hr in presence of PBO pretreated 5 hr before compound challenge; format: functional
Bemisia tabaci [17] = experiment: Insecticidal activity against drug-susceptible Bemisia tabaci SUD-S (sweet potato whitefly) in cotton plant leaf assessed as mortality after 48 hr in presence of EN 16/5-1 pretreated 5 hr before compound challenge; format: functional

| Structure (SMILES) | IC50 [1] | inhibition (Bemisia tabaci [2]) | IC50 [3] | IC50 [4] | Activity (Bemisia tabaci [5]) | Activity (Bemisia tabaci [6]) | Activity (Bemisia tabaci [7]) | inhibition (Bemisia tabaci [8]) | RatioLC50 (Bemisia tabaci [9]) | RatioLC50 (Bemisia tabaci [10]) | RatioLC50 (Bemisia tabaci [11]) | LC50 (Bemisia tabaci [12]) | LC50 (Bemisia tabaci [13]) | LC50 (Bemisia tabaci [14]) | LC50 (Bemisia tabaci [15]) | LC50 (Bemisia tabaci [16]) | LC50 (Bemisia tabaci [17]) |
| --- | --- | --- | --- | --- | --- | --- | --- | --- | --- | --- | --- | --- | --- | --- | --- | --- | --- |
| CCCCOCCOCCOCc1cc2c(cc1CCC)CCO2 | 4.8 µM | Active | 5.4 µM | 6.5 µM | 42% | 82% | 78% | Active |  |  |  |  |  |  |  |  |  |
| O=[N+]([O-])/N=C1\NCCN1Cc1ccc(Cl)nc1 [IMIDACLOPRID] |  |  |  |  |  |  |  |  | 900 | 65.5 | >670 | 847 µg/mL | > 1000 µg/mL | 1.49 µg/mL (≈ 5.83 µM) | 0.49 µg/mL | 32.1 µg/mL | 0.94 µg/mL |
| CCCCOCCOCCOCc1cc2c(cc1CCC)OCO2 [PIPERONYL BUTOXIDE] | 5.4 µM | Active | 5.1 µM | 4.7 µM | 16% | 27% | 24% | Active |  |  |  |  |  |  |  |  |  |
